# Experimental data reported in ChEMBL document CHEMBL1131909, “Synthesis and biological activities of position one and three transposed analogs of the opioid peptide YKFA” (Bioorg Med Chem Lett, 1999).
# What was measured:
# Mu-type opioid receptor [1] = biological target: T1, Mu-type opioid receptor (Cavia porcellus, UniProt P97266); experiment: Compound was tested for moderate potency against mu opioid receptor in guinea pig ileum; format: tissue-based
# Mu-type opioid receptor [2] = biological target: T1, Mu-type opioid receptor; experiment: In vitro mu opioid activity was determined by its ability to inhibit the electrically induced contractions of smooth muscle preparations in guinea pig ileum (GPI); format: functional, tissue-based
# [3] = biological target: Delta-type opioid receptor (Mus musculus, UniProt P32300); experiment: In vitro delta opioid activity was determined by its ability to inhibit the electrically induced contractions of smooth muscle preparations in mouse vas deferens (MVD); format: functional, tissue-based
# Mu-type opioid receptor [4] = biological target: T1, Mu-type opioid receptor; experiment: Compound was tested for its ability to activate mu opioid receptor in GPI bioassay
# Mu-type opioid receptor [5] = biological target: Mu-type opioid receptor (Homo sapiens, UniProt P35372); experiment: Compound was tested for binding affinity against mu opioid receptor binding assay
# Mu-type opioid receptor (Homo sapiens, UniProt P35372), sequence (P35372 whole entry): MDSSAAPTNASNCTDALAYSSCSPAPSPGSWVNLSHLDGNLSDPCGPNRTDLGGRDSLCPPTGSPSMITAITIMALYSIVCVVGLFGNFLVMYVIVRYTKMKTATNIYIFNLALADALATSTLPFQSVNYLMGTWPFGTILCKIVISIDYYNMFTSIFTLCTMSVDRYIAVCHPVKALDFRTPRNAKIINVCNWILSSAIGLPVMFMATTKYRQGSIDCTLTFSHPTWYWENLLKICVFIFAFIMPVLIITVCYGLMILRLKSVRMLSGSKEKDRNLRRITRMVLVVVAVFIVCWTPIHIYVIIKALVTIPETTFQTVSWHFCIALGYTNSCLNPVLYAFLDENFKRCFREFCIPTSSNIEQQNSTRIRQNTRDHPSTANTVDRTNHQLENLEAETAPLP
# T1 sequence (P97266 whole entry): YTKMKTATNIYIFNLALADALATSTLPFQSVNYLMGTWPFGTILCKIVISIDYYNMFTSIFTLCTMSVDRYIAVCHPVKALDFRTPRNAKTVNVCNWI
# Delta-type opioid receptor, sequence (P32300 whole entry): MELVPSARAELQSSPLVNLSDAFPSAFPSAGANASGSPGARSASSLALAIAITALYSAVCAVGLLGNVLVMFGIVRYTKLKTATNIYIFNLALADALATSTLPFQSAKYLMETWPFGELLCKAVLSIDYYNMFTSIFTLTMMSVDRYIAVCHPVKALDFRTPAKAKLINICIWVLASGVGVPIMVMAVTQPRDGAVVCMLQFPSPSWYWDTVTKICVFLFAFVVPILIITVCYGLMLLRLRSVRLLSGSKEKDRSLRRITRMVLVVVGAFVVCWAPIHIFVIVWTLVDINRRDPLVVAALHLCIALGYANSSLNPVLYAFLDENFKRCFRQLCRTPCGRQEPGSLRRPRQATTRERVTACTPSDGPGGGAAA
SMILES,IC50 (Mu-type opioid receptor [2]) [nM],IC50 [3] [nM],further results
NC(=O)[C@H]1CSSC[C@@H](NC(=O)[C@@H](N)Cc2ccccc2)C(=O)NCC(=O)N[C@@H](Cc2ccc([N+](=O)[O-])cc2)C(=O)N1,–,–,IC50 (Mu-type opioid receptor [1]): 13 nM
N[C@@H](Cc1ccccc1)C(=O)N[C@@H]1CCCCNC(=O)[C@H](Cc2cc3ccccc3[nH]2)NC(=O)[C@H](Cc2ccc(O)cc2)NC1=O,17.7,228,–
N[C@H](Cc1ccccc1)C(=O)N[C@@H]1CCCCNC(=O)[C@H](Cc2cc3ccccc3[nH]2)NC(=O)[C@H](Cc2ccc(O)cc2)NC1=O,627,8130,–
CC1(C)SSC[C@@H](NC(=O)[C@@H](N)Cc2ccccc2)C(=O)N[C@@H](Cc2ccccc2)C(=O)N[C@H]1C(N)=O,–,–,IC50 (Mu-type opioid receptor [4]): 9.1 nM; Ki (Mu-type opioid receptor [5]): 13.6 nM
CC1(C)SSC[C@@H](NC(=O)[C@@H](N)Cc2ccc(O)cc2)C(=O)N[C@@H](Cc2ccccc2)C(=O)N[C@H]1C(N)=O,–,–,Ki (Mu-type opioid receptor [5]): 0.29 nM
NC(=O)[C@H]1CSSC[C@@H](NC(=O)[C@@H](N)Cc2ccccc2)C(=O)NCC(=O)N[C@@H](Cc2ccccc2)C(=O)N1,–,–,IC50 (Mu-type opioid receptor [1]): 42 nM
"CC1NC(=O)[C@H](Cc2ccc(O)cc2)NC(=O)[C@H](NC(=O)[C@@H](N)Cc2ccccc2)CCCCNC1=O (single isomer, unassigned)",30.4,367,–
"CC1NC(=O)[C@H](Cc2ccc(O)cc2)NC(=O)[C@H](NC(=O)[C@H](N)Cc2ccccc2)CCCCNC1=O (single isomer, unassigned)",1830,9330,–
"CC1NC(=O)[C@H](Cc2ccccc2)NC(=O)[C@H](NC(=O)[C@@H](N)Cc2ccc(O)cc2)CCCCNC1=O (single isomer, unassigned)",0.11,0.54,–
